Measurements published in patent US10392622B2, “Compositions and methods for self-regulated inducible gene expression” (The Trustees of the University of Pennsylvania, priority 2014, dated 2019).
Entries after “also recorded” stand apart in the source; their conditions may differ.

Columns and labels:
[1] = tested on: cells; details: CD-1, mouse
Method: Bioavailability of IPTG: Three CD-1 adult mice were gavaged with 25 μL of 1M IPTG per 10 g of body weight twice a day for 3 days. Animals were then sacrificed and major organs were harvested, mechanically homogenized, and steady state concentrations of IPTG in liver, kidney, skeletal muscle, and retina were determined using a beta-galacosidase assay^24. […] IPTG concentrations were tracked in various mouse tissues after a single 3-day IPTG gavage induction cycle. Data points represent mean+/−SD, n=3.

[2] = tested on: ARPE-19 cells; experiment: Luciferase regulation assay in transfected ARPE-19 cells with and without IPTG; assay type: cell-based, human
Method: All gene regulation assays start by transiently transfecting the cell line of choice with the appropriate plasmid. Media is supplemented with effector of varying concentration in wells (IPTG for lacI repressor experiments and doxycycline for tet repressor experiments) and specific experimental conditions are typically grown side by side in triplicate. Experimental measurement times varied depending upon cell confluence but occurred 24 to 72 hours after transfection.
Cells were lysed with Reporter Lysis Buffer (Promega) and 5 μL of whole cell lysate was added to 45 μL of luciferase assay buffer (Promega) containing luciferin in 384 well optical bottom plates (Corning). Plates were immediately loaded into the Tecan M1000 and luciferase signal was measured for each well over time. Peak luciferase signal values were used for quantification. […]
The plasmid containing the cassette controlling luciferase was transfected into human retinal pigment epithelium (ARPE-19) cells and grown with and without 2.5 mM IPTG. We measured approximately 20% basal expression with a 3.5-fold induction (p<0.05) (FIG. 1D). […]
Point mutations introduced in the repressor can decrease leakiness, increase dynamic range, or change/alter the affinity for effector molecules in bacterial cells. […] These point mutations were introduced into the repressor and induction measured in ARPE-19 cells. […]

Row | Molecule | gavage concentration of IPTG, fold less than concentrations toxic to cells [1] [fold] | steady state tissue concentrations of IPTG, fold less than concentrations toxic to cells ([1]; 3 days) [fold] | leakiness, dynamic range and maximal expression phenotype (in words) [2]
1 | CC(C)SC1OC(CO)C(O)C(O)C1O [IPTG, isopropyl β-D-1-thiogalactopyranoside] | 50 | 500 | –
2 | Q18M: lacI repressor point mutant in the DNA binding domain, residue 18 Q to M (protein, listed as Escherichia coli) MKPVTLYDVAEYAGVSYMTVSRVVNQASHVSAKTREKVEAAMAELNYIPNRVAQQLAGKQSLLIGVATSSLALHAPSQIVAAIKSRADQLGASVVVSMVERSGVEACKAAVHNLLAQRVSGLIINYPLDDQDAIAVEAACTNVPALFLDVSDQTPINSIIFSHEDGTRLGVEHLVALGHQQIALLAGPLSSVSARLRLAGWHKYLTRNQIQPIAEREGDWSAMSGFQQTMQMLNEGIVPTAMLVANDQMALGAMRAITESGLRVGADISVVGYDDTEDSSCYIPPLTTIKQDFRLLGQTSVDRLLQLSQGQAVKGNQLLPVSLVKRKTTLAPNTQTASPRALADSLMQLARQVSRLESGQ | – | – | deceased leakiness at the expense of maximal expression; also recorded: decreased leakiness as well as the commensurate decreased dynamic range
3 | F161W: lacI repressor effector pocket point mutant, residue 161 F to W (protein, UniProt P03023 1-360, looked up, variant F161W) Lactose operon repressor: MKPVTLYDVAEYAGVSYQTVSRVVNQASHVSAKTREKVEAAMAELNYIPNRVAQQLAGKQSLLIGVATSSLALHAPSQIVAAIKSRADQLGASVVVSMVERSGVEACKAAVHNLLAQRVSGLIINYPLDDQDAIAVEAACTNVPALFLDVSDQTPINSIIWSHEDGTRLGVEHLVALGHQQIALLAGPLSSVSARLRLAGWHKYLTRNQIQPIAEREGDWSAMSGFQQTMQMLNEGIVPTAMLVANDQMALGAMRAITESGLRVGADISVVGYDDTEDSSCYIPPLTTIKQDFRLLGQTSVDRLLQLSQGQAVKGNQLLPVSLVKRKTTLAPNTQTASPRALADSLMQLARQVSRLESGQ | – | – | decreased leakiness and increased dynamic range
